# Laboratory results reported in paper PMC7970304, “The Effects of Apelin and Elabela Ligands on Apelin Receptor Distinct Signaling Profiles” (Frontiers in Pharmacology, 2021).
# Test system: APJ–GRK5 interaction
# Test: BRET recruitment of GRK5 to APJ
# Type: cell-based
# Settings: for log (τ/KA) / Δlog (τ/KA): GRK5; for log (τ/KA): Black–Leff operational model; for Δlog (τ/KA): relative to Apelin-13; for Bias factor / Log (Bias): GRK5 over Ca2+, reference Apelin-13; for Log (Bias): footnote a = statistically insignificant
# Description: To detect the potencies of different peptide ligands for APJ in living cells, real-time kinetic bioluminescence resonance energy transfer (BRET) assays were carried out as follows. HEK293 cells were grown to 80–90% confluence in 24-well plates and transiently transfected with various Rluc-, EYFP-, or Venus-tagged constructs ([Chen et al., 2014]; [Liu et al., 2016]). Approximately 36 h after transfection, the long-acting luciferase substrate EnduRen (E6481, Promega, Beijing Biotech Co., Ltd.) was added to each well at a final concentration of 60 μM and cells were incubated for 2 h at 37°C in a 5% CO2 incubator. BRET experiments were carried out using a Mithras LB941 plate reader (Berthold Technologies, Bad Wildbad, Germany) with three filters: a Rluc filter (400–475 nm), a Venus filter (515–575 nm) and an EGFP filter (500–550 nm) ([Liu et al., 2016]; [Ji et al., 2017]). The BRET ratio was calculated as the ratio of the emission at 535 ± 30 nm to that at 485 ± 20 nm. The results are expressed as the mBRET (mBRET = 1,000 × BRET ratio) ([Pfleger et al., 2006a]; [Pfleger et al., 2006b]). We use high glucose as a negative control group.
# HEK293 cells were transiently co-transfected with the designated Rluc and GFP2 or Venus or EYFP-labeled constructs. Twenty-four hours after transfection, the cells were harvested in phenol red free medium containing 5% FCS in HEPES buffer and seeded in 96 well white microplate coated with poly-D-lysine. After 24 h, cells were washed twice in PBS and re-suspended in PBS containing 0.5 mM MgCl2 and 0.1% glucose. Coelenterazine h substrate was added at a final concentration of 5 μM in the total volume of 50 μL/well. Kinetic-response and dose-response curve of the recruitment of GRKs or β-arrestin 1 and β-arrestin 2 or AP2 to the APJ by six peptides measured by BRET. […] The BRET signals between receptor and GRKs/β-arrestin1 and 2/AP2 were recorded at 10 min (GRK2/5) or 15 min (β-arrestin1 and) or 30 min (AP2) after agonist stimulation. We use high glucose as a control group. BRET assays were performed as described previously ([Xue et al., 2018]). […] This signal is defined as the ligand induced BRET ratio.
# The concentration-response data for the ligands in various assays were analyzed to determine the biases of the ligands for G protein dependent signaling or β-arrestin dependent signaling, according to a previously published method ([Kenakin et al., 2012]; [Hager et al., 2016]; [Hothersall et al., 2017]). Briefly, the concentration-response data for each ligand were fitted to the Black–Leff operation model to obtain the values of τ and K A, using the following equation: Response=[A]^nτ^nEm/[A]^nτ^n+([A]KA)^n where [A] is the concentration of the agonist, E m is the maximal response of the system, n is the transducer slope, and K A and τ describe the affinity and efficacy of the agonist, respectively. In the data fitting, the reparametrized form of the equation proposed by [Kenakin et al. (2012)] was used: Response=Em/1+exp{nln[1+exp(β1)/[A]]−nβ2} where β 1 and β 2 are the natural logarithm of K A and τ, respectively, and E m was set to 1. Thus, for each concentration-response curve, a non-linear regression was performed to fit the above equation to give β 1 and β 2 (as well as n). Log (τ/K A) values (“transduction coefficients”) for each ligand vs. each pathway were obtained. […] The ΔΔlog (τ/K A), or Log (Bias), which is the logarithm of the bias factor for a given pathway over a reference pathway (here, intracellular calcium release), was calculated for each ligand as Δlog (τ/K A)–Δlog (τ/K A)Calcium. The 95% confidence interval (CI) was expressed as the mean ± standard error; Log (Bias) values, whose 95% CI crosses 0, were considered statistically insignificant.
# The data were analyzed using GraphPad Prism v5.0. All the data are presented as the mean ± SEM.
Structure (SMILES),bias over calcium release (APJ–GRK5),log (τ/KA),Δlog (τ/KA),Bias factor,Log (Bias),Log (Bias) (listed as ELA-32)
CSCC[C@H](NC(=O)[C@@H](NC(=O)[C@H](CC(C)C)NC(=O)[C@H](CC(N)=O)NC(=O)[C@@H](NC(=O)[C@@H]1CCCN1C(=O)[C@H](CCCNC(=N)N)NC(=O)[C@@H](N)CCC(N)=O)C(C)C)[C@@H](C)O)C(=O)N[C@@H](CCCNC(=N)N)C(=O)N[C@@H](CCCNC(=N)N)C(=O)N[C@@H](CCCCN)C(=O)N[C@@H](CC(C)C)C(=O)N[C@@H](CCCNC(=N)N)C(=O)N[C@@H](CCCCN)C(=O)N[C@@H](Cc1c[nH]cn1)C(=O)N[C@@H](CC(N)=O)C(=O)N[C@H]1CSSC[C@@H](C(=O)N[C@@H](CCSC)C(=O)N2CCC[C@H]2C(=O)N[C@@H](CC(C)C)C(=O)N[C@@H](Cc2c[nH]cn2)C(=O)N[C@@H](CO)C(=O)N[C@@H](CCCNC(=N)N)C(=O)N[C@H](C(=O)N2CCC[C@H]2C(=O)N[C@@H](Cc2ccccc2)C(=O)N2CCC[C@H]2C(=O)O)C(C)C)NC(=O)[C@H](CCCNC(=N)N)NC(=O)[C@H](CCCNC(=N)N)NC(=O)[C@H](CCC(N)=O)NC(=O)[C@H](CC(C)C)NC1=O [Elabela-32],"> 6,000 fold",−0.3 ± 0.3,2.1 ± 0.4,"8,921.8",4.0,4.0 ± 0.5
CSCC[C@H](NC(=O)[C@@H]1CSSC[C@H](NC(=O)[C@H](CC(N)=O)NC(=O)[C@H](Cc2c[nH]cn2)NC(=O)[C@H](CCCCN)NC(=O)[C@H](CCCNC(=N)N)NC(=O)[C@@H](N)CC(C)C)C(=O)N[C@@H](CC(C)C)C(=O)N[C@@H](CCC(N)=O)C(=O)N[C@@H](CCCNC(=N)N)C(=O)N[C@@H](CCCNC(=N)N)C(=O)N1)C(=O)N1CCC[C@H]1C(=O)N[C@@H](CC(C)C)C(=O)N[C@@H](Cc1c[nH]cn1)C(=O)N[C@@H](CO)C(=O)N[C@@H](CCCNC(=N)N)C(=O)N[C@H](C(=O)N1CCC[C@H]1C(=O)N[C@@H](Cc1ccccc1)C(=O)N1CCC[C@H]1C(=O)O)C(C)C [Elabela-21],,−1.9 ± 0.3,0.5 ± 0.4,124.1,2.1 ± 0.5,
